The values below come from publication PMC10149936, “Cofilin activation in pancreatic acinar cells plays a pivotal convergent role for mediating CCK-stimulated enzyme secretion and growth” (Frontiers in Physiology, 2023).

Assay [1] relates to cofilin / phospho-PP2A association. In words: co-immunoprecipitation of cofilin with phospho-PP2A (pY307) in pancreatic acini. It counts as cell-based, rat. As to conditions: legend: kbNB 0.1 µM or PP2 10 µM, 3 h; CCK-8 100 nM, TPA 1 µM. The protocol:
For co-immunoprecipitation, 600 μg of protein was incubated with 15 μL of the anti-cofilin antibody (Santa Cruz Biotechnology, Inc. Dallas, TX) and 25 μL of protein A/G agarose beads (Thermo-Fisher Scientific. Waltham, MA) overnight at 4°C under agitation. Samples were washed three times with lysis buffer, re-suspended in 12.5 μL of Sample Buffer, Laemlii 2x concentrate and boiled for 5 min before western blotting.
FIGURE 8 Effect of a PKD inhibitor, kbNB, or a Src inhibitor, PP2, on the ability of CCK-8 (100 nM) and TPA (1 µM) to stimulate the association of cofilin with either phospho-PP2A (A) or total PP2A (B). Isolated pancreatic acini were incubated in the absence or presence of kbNB (0.1 µM) or PP2 (10 µM) for 3 h and then incubated with no addition (control), CCK-8 (100 nM, 3 min) or TPA (1 μM, 5 min), and then lysed. Equal amounts of protein were co-immunoprecipitated with an anti-cofilin (Santa Cruz, SC-376476) and then subjected to Western blots using anti-pY307 PP2A and anti-PP2A. Bands were visualized using chemiluminescence and quantified by densitometry. Top: Results of a representative blot of four independent experiments are shown. Bottom: Means ± S.E. of at least 4 independent experiments. Results are expressed as % of basal stimulation of the control group. N.S., No significant.

Assay [2] deals with cofilin (pS3) in rat pancreatic acini. In words: cofilin activation (phospho-pS3 cofilin Western blot) in isolated rat pancreatic acini. It counts as cell-based. Particulars: for reversal of cofilin dephosphorylation by CCK-8: Wortmannin 1 µM, LY294002 100 µM, SB202190 10 µM, U0126 10 µM, Y-27632 10 µM 1 h, SP600125 20 µM 3 h. Here is the method: (§1) Pancreatic acini preparations were obtained by collagenase digestion as previously described ([Bissonnette et al., 1984]; [Sato et al., 1989]; [Ramos-Alvarez and Jensen, 2018]). After collagenase digestion, dispersed acini were preincubated with different inhibitors in standard incubation solution ([Ramos-Alvarez and Jensen, 2018]; [Ramos-Ãlvarez et al., 2020]) for 3 h at 37°C under conditions specific for PKD/PKC, Src, PI3K, MAPKs, SSH1, LIMK, cofilin, other phosphatases and PAK4 inhibitors, as described previously ([Ramos-Alvarez and Jensen, 2018]; [Ramos-Ãlvarez et al., 2020]). Isolated acini and CCK1-R/Panc-1 cells (M&M 2.2.1) were also preincubated with two SSH1 inhibitors, D3 (25 μM, 1 h) ([Li et al., 2015]) or SE (50 μM, 3 h for acini; 24 h for CCK1-R/Panc-1 cells) ([Lee et al., 2017]). After preincubation, 1 mL aliquots of dispersed acini were incubated at 37°C for 3–15 min with CCK-8 (0.3 nM or 100 nM), for 5–15 min with TPA (1 µM) or without stimulants, used as control. Cells were lysed in lysis buffer (50 mM Tris/HCl pH 7.5, 150 mM NaCl, 1% Triton X-100, 1% deoxycholate, 0.1% sodium azide, 1 mM EGTA, 0.4 mM EDTA, 0.2 mM sodium orthovanadate, 1 mM PMSF, and one protease inhibitor tablet per 10 mL). After sonication, lysates were centrifuged at 10,000×g for 15 min at 4°C and protein concentration was measured using the Bio-Rad protein assay reagent. Finally, cells were processed as below for Western blotting.
(§2) Both concentrations of CCK-8 were used because CCK-8 is reported to have different responses with physiological and supraphysiological concentrations contributing to physiological and pathophysiological processes such as pancreatitis ([Dufresne et al., 2006]).
(§3) Western blotting and immunoprecipitation were performed as described previously ([Ramos-Alvarez and Jensen, 2018]). Whole cell lysates were subjected to SDS-PAGE using 4%–20% Tris–Glycine gels. […] Finally, membranes were then washed again twice in blocking buffer for 4 min, twice in washing buffer for 4 min, incubated for 4 min with chemiluminescence detection reagents. The intensity of the protein bands was measured using GeneTools software from Syngene, which were assessed in the linear detection range.
All experiments were performed at least 3 times. Data are presented as mean ± SEM and were analyzed with the non-parametric Kruskal–Wallis analysis (data was not normally distributed) and the Dunn’s multiple comparison test using the GraphPad Prism 8.0 software. P values < 0.05 were considered significant.
(A) Isolated pancreatic acini were incubated in the absence or presence of CCK-8 (100 nM), carbachol (1 μM), bombesin (1 nM), secretin (1 nM) or VIP (1 nM) for 1 min and then lysed. (B) Isolated pancreatic acini were incubated in the absence or presence of CCK-8 and CCK-JMV (at the indicate concentrations) for 3 min and then lysed. Western blots were analyzed using anti-pS3 cofilin, which mediates the activation state of cofilin. Bands were visualized using chemiluminescence and quantified by densitometry.
For orientation: In western blotting, separated proteins are transferred to a membrane and probed.

Another assay relates to p38α. As to conditions: reference not given; cited from earlier work.
Another assay relates to p38β. As to conditions: reference not given; cited from earlier work.
For assay [3], the system named is LIMK (pT508) in pancreatic acini. The assay is described as follows: LIMK phosphorylation (pT508 LIMK Western blot) in isolated rat pancreatic acini. The format is cell-based. The protocol:
as §1, §2, §3
Isolated pancreatic acini were incubated with either no addition (control), CCK-8 (0.3 and 100 nM) or TPA (1 µM) for the indicated periods of time and then lysed. Western blots were analyzed using anti-pT508 LIMK, anti-pS3 cofilin and anti-pS978 SSH1, which […] the activation states of LIMK, cofilin and SSH1. Bands were visualized using chemiluminescence and quantified by densitometry.

Assay [4] deals with cofilin (pS3) in CCK1-R/Panc-1 cells. In words: cofilin activation (pS3 cofilin Western blot) in CCK1-R/Panc-1 cells. The format is cell-based, human. As to conditions: CCK-8 0.3 or 100 nM; D3 25 µM 1 h or SE 50 µM 24 h. Here is the method:
CCK1 receptor transfected Panc-1 (CCK1-R/Panc-1) cells ([Berna et al., 2009]) and AR42J cells, were cultured in DMEM supplemented with 10% FBS and 1% penicillin/streptomycin and in RPMI supplemented with 10% FBS and 1% penicillin/streptomycin, respectively; and split 1:10 weekly with trypsin/EDTA, after washing in PBS. Finally, cells were seeded in 6-well plate and serum starved overnight, until they were 80% confluent. Cells were incubated at 37°C in 5% CO2/95% air. AR42J cells were treated with 100 nM dexamethasone for 72°h, which stimulates their differentiation into exocrine cells ([Logsdon, 1986]).
Pancreatic acini preparations were obtained by collagenase digestion as previously described ([Bissonnette et al., 1984]; [Sato et al., 1989]; [Ramos-Alvarez and Jensen, 2018]). […] Isolated acini and CCK1-R/Panc-1 cells (M&M 2.2.1) were also preincubated with two SSH1 inhibitors, D3 (25 μM, 1 h) ([Li et al., 2015]) or SE (50 μM, 3 h for acini; 24 h for CCK1-R/Panc-1 cells) ([Lee et al., 2017]). […] After sonication, lysates were centrifuged at 10,000×g for 15 min at 4°C and protein concentration was measured using the Bio-Rad protein assay reagent. […]
Western blotting and immunoprecipitation were performed as described previously ([Ramos-Alvarez and Jensen, 2018]). […] The intensity of the protein bands was measured using GeneTools software from Syngene, which were assessed in the linear detection range. […]
FIGURE 3 Effect of two SSH1 inhibitors, D3 and SE (A–C), or SSH1 siRNA (D), on the ability of CCK-8 (0.3 and 100 nM) to activate LIMK and cofilin in pancreatic acini (A/B) and activate cofilin in CCK1-R/Panc-1 cells (C/D). […] Western blots were analyzed using anti-pS3 cofilin and anti-pT508 […], and the knockdown effect of SSH1 was confirmed by Western blots using SSH1 (C-term) antibody. Bands were visualized using chemiluminescence and quantified by densitometry. […] Results are expressed as % of basal stimulation of the control group. *, p < 0.05 compared to the control group; ∞, p < 0.05 compared to stimulants without inhibitors. […]

Another assay has as its system MEK2. Particulars: non ATP-competitive; reference not given; cited from earlier work.
Another assay has as its system MEK1. Particulars: non ATP-competitive; reference not given; cited from earlier work.
The subject of a further assay is PP2A / PP1. Particulars: low concentrations; ref Ishihara et al., 1989; Takai et al., 1992; Lutz et al., 1993; Schmidt et al., 1994; Walsh et al., 1997; cited from earlier work. From the text: (Figures 5, 6) In human T lymphocytes, neurons, the 293 T cell line (human embryonic kidney 293 cells) and HeLa cells, it is reported that activation of cofilin can occur due its dephosphorylation through the co-stimulation activation of accessory receptors (e.g.,.CD2, CD3 or CD28) by CD3xCD28 mAb, with Endothelin-1 (ET-1), and the Ca^2+ ionophore A23187, which is mediated by activation of serine protein phosphatases ([Ambach et al., 2000]; [Wang et al., 2005]; [Tam et al., 2019]). Therefore, to explores the possible role of the protein phosphatases PP1, PP2A, PP2B in CCK-8-induced activation ...

[5] abbreviates: SE 50 µM 3 h or D3 25 µM 1 h, no stimulant.

For the molecule `CN(C)CCCn1cc(C2=C(c3c[nH]c4ccccc34)C(=O)NC2=O)c2ccccc21` [GF109203X], in [1], the “inhibition of decrease in phospho-PP2A co-immunoprecipitation stimulated by CCK-8 and TPA” value is “completely inhibited”. Further, the “effect on basal phosphorylation level of cofilin” value in assay [2] (GFX 5 µM, kbNB 0.1 µM or PP2 10 µM, 3 h, no stimulant) is “None of these inhibitors altered the basal phosphorylation level of cofilin”. Also, in assay [2] (GFX 5 µM, kbNB 0.1 µM or PP2 10 µM, 3 h, CCK-8 100 nM 3 min, TPA 1 µM 5 min), the “reversal of cofilin dephosphorylation stimulated by CCK-8 and TPA” value is “completely reversed”.

In the case of `Oc1ccc(-c2nc(-c3ccncc3)c(-c3ccc(F)cc3)[nH]2)cc1` [SB202190], the IC50 (in general, the concentration that gives 50% inhibition) in the assay with p38α is […]; in the assay on p38β it was […]. Also, the “reversal of cofilin dephosphorylation by CCK-8” value in [2] (CCK-8 0.3 and 100 nM 3 min) is “not PI3K or p38”.

Consider `O=C(O)c1cc(O)c2c(c1)[C@H]([C@H]1c3cc(C(=O)O)cc(O)c3C(=O)c3c(O[C@@H]4O[C@H](CO)[C@@H](O)[C@H](O)[C@H]4O)cccc31)c1cccc(O[C@@H]3O[C@H](CO)[C@@H](O)[C@H](O)[C@H]3O)c1C2=O` [SE, Sennoside A], for which the inhibition (as a rule, the change of the read-out against control, counted positive when it falls) at 50 µM in assay [3] (Rattus norvegicus, CCK-8 0.3 or 100 nM, 5 min, SE 50 µM 3 h or D3 25 µM 1 h preincubation, read-out: inhibition of CCK-8's dephosphorylation of LIMK) is 20%; in assay [2] (Rattus norvegicus, CCK-8 0.3 or 100 nM, 5 min, SE 50 µM 3 h or D3 25 µM 1 h preincubation, n at least 4, read-out: inhibition of CCK-8-caused cofilin dephosphorylation), 30 to 33%. In assay [3] (setting [5]), the “effect on basal phosphorylation of LIMK” value was “Neither D3 nor SE affected the basal phosphorylation of LIMK or cofilin”. Also, the “inhibition of CCK-8-induced dephosphorylation of cofilin” value in assay [4] is “completely inhibited”. In addition, the “effect on basal phosphorylation of cofilin” value in assay [2] (setting [5]) is recorded as “Neither D3 nor SE affected the basal phosphorylation of LIMK or cofilin”.

Turning to `N#CC(=C(/N)Sc1ccccc1N)/C(C#N)=C(/N)Sc1ccccc1N` [U0126], the IC50 is 0.058 µM in the assay on MEK2 and 0.072 µM with MEK1. Also, the “reversal of cofilin dephosphorylation by CCK-8” value in assay [2] (CCK-8 0.3 and 100 nM 3 min) is “Only preincubation with the JNK inhibitor, SP600125 (Figure 10C), and the ROCK inhibitor, Y-27632, (Figure 10D), completely reversed cofilin dephosphorylation by CCK-8”.

Regarding `COC[C@@H]([C@H](O)[C@H](O)C(=O)NCC[C@H](C)c1nc(/C=C/C[C@@H]2O[C@]3(C[C@@H](O)[C@@H]2C)O[C@H]([C@H](C[C@H](O)[C@H](C)[C@H](O)[C@H](C)/C=C(C)/C(C)=C/C=C/C(C)=C\C#N)OC)[C@H](OP(=O)(O)O)C3(C)C)co1)N(C)C` [calyculin A], the “selectivity PP1/PP2A/PP2B” value in the assay with PP2A / PP1 is “inhibits equally PP1 and PP2A activity, but not PP2B”. Moreover, in assay [2] (calyculin A 1 nM or okadaic acid 10 nM, 3 h, no stimulant), the “decrease of basal level of cofilin phosphorylation” value was found to be 24%. The “inhibition of cofilin activation stimulated by CCK-8” value in [2] (calyculin A 1 nM or okadaic acid 10 nM, 3 h, CCK-8 0.3 and 100 nM 3 min) is recorded as “completely inhibited”.
